In patent US20230172915A1, “DHODH INHIBITOR FOR THE TREATMENT OF COVID-19” (priority 2020, published 2023):
Like-named read-outs stand apart in the source and are kept apart here.

Assays:
Ebola virus = assay: microbe, parasite or virus in culture; format: cell-based; conditions: Zaire ebolavirus, Vero, read-out: EC50 Ebola virus
[1] = tested on: primary acute myeloid leukemia (AML) blast cells; conditions: Cao 2020; cited from earlier work
[2] = tested on: PBMCs plus fibroblasts (HDFSAg); assay: BioMAP profiling, HDFSAg system; format: cell-based; conditions: Homo sapiens
Experimental: The effect of PTC299 on cytokine production was assessed using BioMAP profiling (BioSeek, now part of Eurofins). The BioMAP system is comprised of complex co-cultures of primary peripheral blood mononuclear cells (PBMCs) with other cell types including B cells, fibroblasts, and endothelial cells allowing for the measurement of physiologically relevant biomarker readouts of the activity of a compound. Using this system, cytokine production was evaluated in the following models of primary cell disease models: • Peripheral blood mononuclear cells (PBMCs) plus venular endothelial cells (sAg) • PBMCs plus B cells (BT) • PBMCs plus fibroblasts (HDFSAg) • TH2 cells plus venular endothelial cells (/TH2).
Abbreviations in Table 4: BCR, B-cell receptor; BT System, co-culture of CD19+ B cells and PBMC that utilizes BCR stimulation and sub-mitogenic TCR stimulation; HDFSAg system, co-culture of human primary dermal fibroblasts and PBMC that is stimulated with sub-mitogenic TCR levels; IL, interleukin; PBMC, Peripheral Blood Mononuclear Cell; SAg system, co-culture of endothelial cells and PBMC stimulated with mitogenic levels of TCR ligands; TCR, T-cell receptor; /TH2 system, co-culture of endothelial cells and Th2 blasts stimulated with TCR ligands and cytokines; Th2, T helper type 2; VEGF, vascular endothelial growth factor.

Compound: COc1ccc([C@H]2c3[nH]c4ccc(Cl)cc4c3CCN2C(=O)Oc2ccc(Cl)cc2)cc1 [PTC299, 4-chlorophenyl (S)-6-chloro-1-(4-methoxyphenyl)-1,3,4,9-tetrahydro-2H-pyrido[3,4-b]indole-2-carboxylate]
- EC50 (Ebola virus): 9 nM
- effect on primary AML blast cells [1]: caused a G1/S cell-cycle arrest, inhibition of proliferation, and cell death
- inhibition at 0.001 µM ([2]; read-out: % Inhibition sVEGF): 90%
- inhibition at 0.01 µM ([2]; read-out: % Inhibition sVEGF): 84%
- inhibition at 0.1 µM ([2]; read-out: % Inhibition sVEGF): 60%
- inhibition at 0.001 µM ([2]; HDFSAg, 1 nM, read-out: % Inhibition sIL-6): 33%
- inhibition at 0.001 µM ([2]; HDFSAg, 1 nM, read-out: % Inhibition sIL-17F): 46%
- inhibition at 0.01 µM ([2]; HDFSAg, 10 nM, read-out: % Inhibition IL-8): 25%
- inhibition at 0.01 µM ([2]; HDFSAg, 10 nM, read-out: % Inhibition sIL-2): 47%
- inhibition at 0.01 µM ([2]; HDFSAg, 10 nM, read-out: % Inhibition sIL-6): 91%
- inhibition at 0.01 µM ([2]; HDFSAg, 10 nM, read-out: % Inhibition sIL-10): 73%
- inhibition at 0.01 µM ([2]; HDFSAg, 10 nM, read-out: % Inhibition sIL-17A): 57%
- inhibition at 0.01 µM ([2]; HDFSAg, 10 nM, read-out: % Inhibition sIL-17F): 86%
- inhibition at 0.1 µM ([2]; HDFSAg, 100 nM, read-out: % Inhibition IL-8): 44%
- inhibition at 0.1 µM ([2]; HDFSAg, 100 nM, read-out: % Inhibition MCP-1): 33%
- inhibition at 0.1 µM ([2]; HDFSAg, 100 nM, read-out: % Inhibition MMP-1): 23%
- inhibition at 0.1 µM ([2]; HDFSAg, 100 nM, read-out: % Inhibition sIL-2): 68%
- inhibition at 0.1 µM ([2]; HDFSAg, 100 nM, read-out: % Inhibition sIL-6): 96%
- inhibition at 0.1 µM ([2]; HDFSAg, 100 nM, read-out: % Inhibition sIL-10): 81%
- inhibition at 0.1 µM ([2]; HDFSAg, 100 nM, read-out: % Inhibition sIL-17A): 74%
- inhibition at 0.1 µM ([2]; HDFSAg, 100 nM, read-out: % Inhibition sIL-17F): 83%
- inhibition at 0.1 µM ([2]; HDFSAg, 100 nM, read-out: % Inhibition sTNFa): 35%
